In US10159265B2, “Feed composition for reducing ruminant methanogenesis” (priority 2012, dated 2018):
Marks after values point to notes of the source that are not given here.

Assays:
[1] = test system: "in vitro" ruminal fluid cultures; test: Ammonia (N-NH3) concentration in "in vitro" ruminal fluid cultures; type: cell-based, calves
Excerpt: (§1) Two trials following an identical experimental protocol were designed to study the effect of different pure flavonoids on rumen fermentation using a simulatory “in vitro” system based on the experimental protocol described by Theodorou M K et al. (1994) Animal Feed Science and Technology, 48 (3), p. 185-197; Mauricio, R. M., et al. (1999) Animal Feed Science and Technology 79, 321-330.
(§2) Rumen cannulated calves which received a mixed ration mainly composed of concentrate (90:10) were used as rumen fluid donor; feed composition is presented in Table 1. The inoculum was collected and filtered through two-layer surgical gauze and kept in thermo pots. Flavonoids (Table 2) plus 600 mg of concentrate (Table 1) and 60 mg of barley straw as the substrate were dosed by triplicate in preheated bottles (39° C.) and maintained under anaerobic conditions. Flavonoids isonaringin, neoeritrocin, poncirin were purchased from INDOFINE Chemical Company, Inc (USA). 10 ml of rumen fluid and 40 ml of incubation medium were added to the bottles (McDougall, El (1948) Studies on ruminant saliva. 1. The composition and output of sheep's saliva. Biochem J. 43(1) 99-109). Once the bottles were filled and the anaerobic condition was applied, the bottles were sealed and the incubation process was started in a hot water bath. Pressure readings were made at 2, 4, 6, 8, 12, 24, 36 and 48 hours. Each sample was incubated in triplicate in two sets or batches.
(§3) After 12 hours of incubation, one bottle (replicate) from each treatment was opened, pH was recorded and the bottle was sampled for volatile fatty acids (Jouany, J. P., 1982 Science des Aliments 2, 131-144), lactate (Taylor, K. A. C. C., 1996. Appl. Biochem. Biotechnol. Enzym. Eng. Biotechnol. 56, 49-58) and ammonia (Chaney, A. L., Marbach, E. P., 1962. Clin. Chem. 8, 130-132) analyses.

Megasphaera elsdenii = test: qPCR relative quantification of Megasphaera elsdenii; type: cell-based; conditions: 12 hours of incubation
Procedure: as §2, §3
(§4) The environmental DNA was extracted using the technique proposed by Yu and Morrison (2004). Quantification of Streptococcus bovis, Megasphaera elsdenii and Selenomonas ruminantium DNA was done by qPCR using specific primers (Tajima, K. et al. 2001. Appl. Environ. Microb. 67, 2766-2774; Ouwerkerk, D., et al. 2002. J. Appl. Microbiol. 92, 753-758). Results were statistically analyzed using the PROC MIXED procedure of SAS statistical package (SAS, 2000, User's guide: Statistics, version 8 editions inst., Inc., Cary, N.C.). The least significant difference was used to compare the means. Differences between means in which P<0.05 were accepted as significant.

[2] = test system: methanogenic (archea) populations; test: Methane production in "in vitro" rumen fluid culture; type: cell-based, calves; design: Average methane production / Accumulated methane production / Methane production / Cumulative methane production: unit not given here; conditions: Exp 1
Excerpt: as §1
as §2, with “Pressure readings were made at 2, 4, 6, 8, 12, 24, 36 and 48 hours.” left out
The effects of flavonoids substances on fermentation activity of certain archea populations which are theoretically responsible for the methane production were analyzed.
The experimental design allows determining whether the effect of flavonoids on methane reduction was derived from a general reduction in microbial activity and biogas production or contrarily flavonoid affects specifically on methanogenic (archea) populations. The presence of flavonoids in the culture medium reduced methane contribution in the total biogas production (P<0.05) although, again, the aforementioned impact was heterogeneous.

ruminal bacteria = test: Bacterial DNA concentration by qPCR; type: cell-based, calves; conditions: 12 hours of incubation
Procedure: as §2, §3, §4

Streptococcus bovis = test: qPCR relative quantification of Streptococcus bovis; type: cell-based; conditions: 12 hours of incubation
Procedure: as §2, §3, §4

[3] = test system: "in vitro" ruminal fluid cultures; test: Ammonia (N-NH3) concentration in "in vitro" ruminal fluid cultures; type: cell-based, calves; conditions: 72 h
[4] = test system: "in vitro" ruminal fluid culture; test: Lactate concentration in "in vitro" ruminal fluid culture; type: cell-based, calves; conditions: 12 hours of incubation
Excerpt: as §1, §2, §3

Selenomonas ruminantium = test: qPCR relative quantification of Selenomonas ruminantium; type: cell-based; conditions: 12 hours of incubation
Procedure: as §2, §3, §4

[5] = test system: "in vitro" ruminal fluid cultures; test: Volatile fatty acid concentration and molar proportions in "in vitro" ruminal fluid cultures; type: cell-based, calves
Excerpt: as §1, §2
[…] P., 1982 Science des Aliments 2, 131-144), lactate (Taylor, K. A. C. C., 1996. Appl. Biochem. Biotechnol. Enzym. Eng. Biotechnol. 56, 49-58) and ammonia (Chaney, A. L., Marbach, E. P., 1962. Clin. Chem. 8, 130-132) analyses.

[6] = test system: "in vitro" rumen fluid culture; test: Biogas production in "in vitro" rumen fluid culture (pressure meter); type: cell-based, calves; design: Average biogas production / Cumulative biogas production / Biogas production: unit not given here; conditions: Exp 1
Procedure: as §1
Gas production was determined from a semi-automatic pressure meter, the relationship between pressure levels and the produced gas volume was previously calculated.
as §2, with “Pressure readings were made at 2, 4, 6, 8, 12, 24, 36 and 48 hours.” left out

[7] = average over doses and incubation times

`C[C@@H]1O[C@@H](OC[C@H]2O[C@@H](Oc3cc(O)c4c(c3)O[C@H](c3ccc(O)cc3)CC4=O)[C@H](O)[C@@H](O)[C@@H]2O)[C@H](O)[C@H](O)[C@H]1O` [Isonaringin, isonaringin] was tested, and the N-NH3 concentration ([1]; 0 h (initial constant value)) was 149.99 mg/L, the N-NH3 concentration ([1]; 12 h) was 165.46 mg/L and the “N-NH3 concentration, average (M)” value ([1]; average over incubation times) was 212.66 mg/L. The “Relative Quantification 2^(ΔΔCt) M. elsdenii” value (Megasphaera elsdenii) was 1.08 ^ab, the Accumulated methane production ([2]; 12 h) was 19.84 and the “Proportion of methane in the produced biogas” value (“Proportion of methane” below) ([2]; 12 h) was 10.68. For the same compound, the Accumulated methane production ([2]; 24 h) was 24.94, the “Proportion of methane” value ([2]; 24 h) was 13.56 and the Accumulated methane production ([2]; 48 h) was 30.81. The “Proportion of methane” value ([2]; 48 h) was 16.79, the Accumulated methane production ([2]; 72 h) was 34.08 and the “Proportion of methane” value ([2]; 72 h) was 16.89. The Average methane production [2, 7] was 27.42^de, the “Proportion of methane” value [2, 7] was 14.48^bc and the Average methane production ([2]; average over doses and incubation times, listed as isonaringin) was “decreased”. The Methane production ([2]; dose 1, 0.2 g/kg DM) was 27.40, the “Proportion of methane” value ([2]; dose 1, 0.2 g/kg DM) was 14.53 and the Methane production ([2]; dose 2, 0.5 g/kg DM) was 27.43. The “Proportion of methane” value ([2]; dose 2, 0.5 g/kg DM) was 14.43, the “Bacteria DNA” value (ruminal bacteria) was 16.18 ^ab μg/ml and the “Relative Quantification 2^(ΔΔCt) S. bovis” value (Streptococcus bovis) was 0.46. The N-NH3 concentration [3] was 322.53 mg/L, the Lactate [4] was 92.4 mg/L and the “Relative Quantification 2^(ΔΔCt) S. ruminantium” value (Selenomonas ruminantium) was 0.86. The “% Acetate, molar ratio” value ([5]; 0 h) was 62.51 mol/100 mol, the “% Butyrate, molar ratio” value ([5]; 0 h) was 9.07 mol/100 mol and the “% Propionate, molar ratio” value ([5]; 0 h) was 20.03 mol/100 mol. The “A/P rate (acetate/propionate)” value ([5]; 0 h) was 3.12, the VFA concentration ([5]; 0 h (initial constant value)) was 13.78 mmol/L and the “% Acetate, molar ratio” value ([5]; 12 h) was 53.94 mol/100 mol. The “% Butyrate, molar ratio” value ([5]; 12 h) was 10.31 mol/100 mol, the “% Propionate, molar ratio” value ([5]; 12 h) was 30.20 mol/100 mol and the “A/P rate (acetate/propionate)” value ([5]; 12 h) was 1.79. The VFA concentration ([5]; 12 h) was 36.49 mmol/L, the “% Acetate, molar ratio” value ([5]; 72 h) was 55.34 mol/100 mol and the “% Butyrate, molar ratio” value ([5]; 72 h) was 10.24 mol/100 mol. For the same compound, the “% Propionate, molar ratio” value ([5]; 72 h) was 26.94 mol/100 mol, the “A/P rate (acetate/propionate)” value ([5]; 72 h) was 2.06 and the VFA concentration ([5]; 72 h) was 52.26 mmol/L. For the same compound, the “% Acetate, molar ratio, average (μ)” value ([5]; average over incubation times) was 57.26 mol/100 mol, the “% Butyrate, molar ratio, average (μ)” value ([5]; average over incubation times) was 9.87 ^ab mol/100 mol and the “% Propionate, molar ratio, average (M)” value ([5]; average over incubation times) was 25.72 ^b mol/100 mol. The “VFA concentration, average (μ)” value ([5]; average over incubation times) was 34.18 mmol/L, the “% Propionate, molar ratio, average (M)” value ([5]; average over incubation times, listed as isonaringin) was “improved” and the Cumulative biogas production ([6]; 12 h incubation) was 185.58. The Cumulative biogas production ([6]; 24 h incubation) was 223.38, the Cumulative biogas production ([6]; 48 h incubation) was 258.85 and the Cumulative biogas production ([6]; 72 h incubation) was 278.66. The Biogas production ([6]; dose 1, 0.2 g/kg DM) was 235.13 and the Biogas production ([6]; dose 2, 0.5 g/kg DM) was 238.1.
